Broadly, the IC50 is the midpoint of a concentration-inhibition curve.

The target of the first assay is T1, partially purified telomerase from a nuclear extract of HEK293 cells (Homo sapiens, UniProt O14746).
T1 construct: partially purified telomerase from a nuclear extract of HEK293 cells; endogenous in cells; host or cells: HEK293 cells, nuclear extract, partially purified
T1 sequence (O14746 whole entry): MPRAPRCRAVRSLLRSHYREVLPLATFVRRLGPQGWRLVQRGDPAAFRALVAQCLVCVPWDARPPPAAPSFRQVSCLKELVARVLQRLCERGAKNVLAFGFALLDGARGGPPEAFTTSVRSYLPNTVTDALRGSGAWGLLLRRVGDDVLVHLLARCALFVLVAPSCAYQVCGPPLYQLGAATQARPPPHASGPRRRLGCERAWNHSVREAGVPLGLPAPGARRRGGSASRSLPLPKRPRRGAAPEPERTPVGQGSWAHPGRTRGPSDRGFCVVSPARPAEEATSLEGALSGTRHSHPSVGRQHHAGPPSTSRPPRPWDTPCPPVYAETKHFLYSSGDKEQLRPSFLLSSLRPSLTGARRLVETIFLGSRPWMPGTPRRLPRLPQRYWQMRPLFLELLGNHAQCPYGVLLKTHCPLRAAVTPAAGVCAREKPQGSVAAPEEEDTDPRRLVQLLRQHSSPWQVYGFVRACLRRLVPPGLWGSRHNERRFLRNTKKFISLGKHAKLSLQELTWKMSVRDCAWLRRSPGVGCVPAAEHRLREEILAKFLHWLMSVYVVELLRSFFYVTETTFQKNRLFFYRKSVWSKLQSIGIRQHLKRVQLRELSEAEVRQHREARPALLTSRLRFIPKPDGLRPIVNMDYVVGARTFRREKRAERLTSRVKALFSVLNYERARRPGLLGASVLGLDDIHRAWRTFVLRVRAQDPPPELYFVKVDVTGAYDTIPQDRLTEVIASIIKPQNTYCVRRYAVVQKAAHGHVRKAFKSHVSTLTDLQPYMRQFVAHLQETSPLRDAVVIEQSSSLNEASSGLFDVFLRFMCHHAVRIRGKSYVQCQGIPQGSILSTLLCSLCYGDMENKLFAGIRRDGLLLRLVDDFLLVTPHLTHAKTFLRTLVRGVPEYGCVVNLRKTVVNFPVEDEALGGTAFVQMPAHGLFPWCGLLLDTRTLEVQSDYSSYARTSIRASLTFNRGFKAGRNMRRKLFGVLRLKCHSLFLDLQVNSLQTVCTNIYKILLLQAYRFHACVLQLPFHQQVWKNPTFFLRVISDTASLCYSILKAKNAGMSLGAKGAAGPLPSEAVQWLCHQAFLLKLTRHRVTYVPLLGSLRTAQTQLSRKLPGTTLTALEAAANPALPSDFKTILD
T1 sequence (O60832 whole entry partner): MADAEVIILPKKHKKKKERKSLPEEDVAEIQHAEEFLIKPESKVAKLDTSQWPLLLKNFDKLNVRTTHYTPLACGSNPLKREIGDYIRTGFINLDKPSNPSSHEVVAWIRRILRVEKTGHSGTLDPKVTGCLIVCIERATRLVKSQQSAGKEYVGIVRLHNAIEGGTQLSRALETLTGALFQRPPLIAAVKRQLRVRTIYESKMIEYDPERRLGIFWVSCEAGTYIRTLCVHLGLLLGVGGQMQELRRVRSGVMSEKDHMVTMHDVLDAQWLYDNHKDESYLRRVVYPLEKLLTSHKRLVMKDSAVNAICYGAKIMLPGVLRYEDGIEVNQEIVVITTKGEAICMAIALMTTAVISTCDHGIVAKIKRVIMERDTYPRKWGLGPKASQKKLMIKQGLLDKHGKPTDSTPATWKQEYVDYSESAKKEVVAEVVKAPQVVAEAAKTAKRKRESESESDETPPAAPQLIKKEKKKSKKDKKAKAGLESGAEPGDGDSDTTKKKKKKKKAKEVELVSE
T1 sequence (Q9NPE3 whole entry partner): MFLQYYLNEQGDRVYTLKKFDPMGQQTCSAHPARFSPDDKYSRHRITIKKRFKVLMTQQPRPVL
T1 sequence (Q9NX24 whole entry partner): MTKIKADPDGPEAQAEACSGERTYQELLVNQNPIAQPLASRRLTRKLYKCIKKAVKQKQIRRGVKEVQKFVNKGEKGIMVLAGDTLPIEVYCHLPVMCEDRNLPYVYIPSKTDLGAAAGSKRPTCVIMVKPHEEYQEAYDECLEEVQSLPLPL
T1 sequence (Q9NY12 whole entry partner): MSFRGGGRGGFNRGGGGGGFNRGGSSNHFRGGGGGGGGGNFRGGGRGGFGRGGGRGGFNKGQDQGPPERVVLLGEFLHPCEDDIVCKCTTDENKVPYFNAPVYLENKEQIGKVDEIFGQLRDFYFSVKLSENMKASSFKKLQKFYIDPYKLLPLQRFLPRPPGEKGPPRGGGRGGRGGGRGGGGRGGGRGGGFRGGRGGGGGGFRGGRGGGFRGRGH
The assay is described as follows: In vitro telomerase inhibition, membrane hybridization method (U.S. Pat. No. 5,760,062). The settings on record: in the presence of the compound at a concentration of 10 μm. It is filed as biochemical. Here is the method:
Alternatively, telomerase inhibitory activity of the compounds was measured in accordance with a known method (U.S. Pat. No. 5,760,062). That is, a dimethyl sulfoxide (DMSO) solution of each agent was mixed with partially purified telomerase from a nuclear extract of HEK293 cells and incubated in the presence of an oligodeoxynucleotide to be used as the substrate and deoxynucleotide triphosphate. The obtained reacted product (DNA having a telomere sequence) was adsorbed on a membrane, and hybridization was carried out using a labeled oligonucleotide probe having a sequence complementary to the telomere sequence. The inhibition ratio was calculated based on the ratio of the signal of label on the membrane in the presence of the agent to the signal of label in the absence of the agent (control). Also, concentration of each agent which inhibits 50% of the enzyme activity based on the control was used as IC50.
For `COC(=O)c1cc(C=C2SC(=O)NC2=O)c(Sc2ccc(Cl)cc2)s1` [Compound 58], the “residual activity of in vitro telomerase activity (in parenthesis)” value (shortened to “residual activity”) is “(56%)”.
In the case of `Cc1ccc([S+]([O-])c2ccc(-c3ccco3)cc2C=C2SC(=O)NC2=O)cc1` (stereo not drawn) [Compound 91], the “residual activity” value is reported as “(61%)”.
Same read-out and setting: the value for `Cc1ccc([S+]([O-])c2ccc(-c3cccs3)cc2C=C2SC(=O)NC2=O)cc1` (stereo not drawn) [Compound 93] was “(55%)”; that for `Cc1ccc(Sc2ccc(CO)cc2C=C2SC(=O)NC2=O)cc1` [Compound 96] was “(62%)”.
Regarding `Cc1ccc(Sc2cc(C(F)(F)F)ccc2C=C2SC(=O)NC2=O)cc1` [Compound 101], the “residual activity” value is recorded as “(62%)”.
Still for that read-out and setting: the value for `COc1ccc(Sc2ccc(C)cc2)c(C=C2SC(=O)NC2=O)c1` [Compound 104] was “(61%)”; that for `O=C1NC(=O)C(=Cc2cc([N+](=O)[O-])ccc2Oc2ccccc2)S1` [Compound 110] was “(53%)”; that for `O=C1NC(=O)C(=Cc2cc([N+](=O)[O-])ccc2N2CCCCC2)S1` [Compound 124] was “(54%)”.

The same assay, now with this note: partially purified telomerase from nuclear extract of HEK293 cells.
Take `Cc1ccc(Sc2ccc(C=C3SC(=O)NC3=O)cc2[N+](=O)[O-])cc1` [Compound 9]: the half-inhibitory concentration (IC50) is 8.3 µM.
Turning to `O=C1NC(=O)C(=Cc2cccc(Oc3ccc(Cl)c(Cl)c3)c2)S1` [Compound 13], 5.9 µM corresponded to half-maximal inhibition (IC50). This IC50 and that of the compound before are within 1.5-fold of each other.
As to `O=C1NC(=O)C(=Cc2cc([N+](=O)[O-])ccc2OCc2ccc(Cl)c(Cl)c2)S1` [Compound 17], the IC50 was determined as 10 µM.
As to `Cc1ccc(COc2ccc([N+](=O)[O-])cc2C=C2SC(=O)NC2=O)cc1` [Compound 18], the IC50 was 11 µM.
The same measure, in the same setting: the value for `Cc1ccc(COc2cc(C=C3SC(=O)NC3=O)ccc2[N+](=O)[O-])cc1` [Compound 19] was 70 µM; that for `Cc1ccc(COc2ccc(C=C3SC(=O)NC3=O)cc2[N+](=O)[O-])cc1` [Compound 20] was 9 µM; that for `COc1ccc(OCc2ccc(C)cc2)c(C=C2SC(=O)NC2=O)c1` [Compound 23] was 14 µM.
The same measure, in the same setting: the same measure for `Cc1ccc(COc2ccc(Cl)cc2C=C2SC(=O)NC2=O)cc1` [Compound 24]: 5.3 µM; for `Cc1ccc(COc2ccc(Br)cc2C=C2SC(=O)NC2=O)cc1` [Compound 25]: 4.2 µM.
Still for that read-out and setting: the value for `O=C1NC(=O)C(=Cc2ccc(N(c3ccccc3)c3ccccc3)cc2)S1` [Compound 26] was 4.2 µM; that for `O=C1NC(=O)C(=Cc2ccc(C(=O)c3ccccc3)cc2)S1` [Compound 31] was 15 µM; that for `O=C1NC(=O)C(=Cc2ccc(Cc3ccccc3)cc2)S1` [Compound 32] was 21 µM.
Consider `O=C1NC(=O)C(=Cc2ccc(C(O)(c3ccccc3)c3ccccc3)cc2)S1` [Compound 33], for which 5.5 µM corresponded to half-maximal inhibition (IC50).
The same measure, in the same setting: the value for `O=C1NC(=O)C(=Cc2ccc(CN(c3ccccc3)c3ccccc3)cc2)S1` [Compound 35] was 3.9 µM; that for `O=C1NC(=O)C(=Cc2ccc(N(Cc3ccccc3)Cc3ccccc3)cc2)S1` [Compound 36] was 5.1 µM.
The same measure, in the same setting: the same measure for `O=C1NC(=O)C(=Cc2cc(Br)sc2Sc2ccc(Cl)cc2)S1` [Compound 43]: 2.6 µM; for `O=C1NC(=O)C(=Cc2cc(-c3ccccc3)sc2Sc2ccc(Cl)cc2)S1` [Compound 44]: 1.9 µM.
Same read-out and setting: the same measure for `Cc1ccc(COc2ccc(-c3ccccc3)cc2C=C2SC(=O)NC2=O)cc1` [Compound 47]: 4.1 µM.
In turn, `Cc1ccc(COc2ccc(-c3cccs3)cc2C=C2SC(=O)NC2=O)cc1` [Compound 48] had an IC50 of 1.6 µM.
The same measure, in the same setting: the value for `O=C1NC(=O)C(=Cc2ccc(N(c3ccc(CO)cc3)c3ccc(CO)cc3)cc2)S1` [Compound 49] was 4.4 µM; that for `O=C1NC(=O)C(=Cc2cc(C(=O)O)sc2Sc2ccc(Cl)cc2)S1` [Compound 53] was 0.77 µM; that for `O=C1NC(=O)C(=Cc2cc(C(=O)Nc3ccccc3)sc2Sc2ccc(Cl)cc2)S1` [Compound 55] was 5.3 µM.
Still for that read-out and setting: the same measure for `O=C1NC(=O)C(=Cc2sccc2Oc2ccccc2)S1` [Compound 59]: 2.1 µM; for `O=C1NC(=O)C(=Cc2cc(Sc3ccc(Cl)cc3)cs2)S1` [Compound 60]: 4.5 µM.
On the same count and under the same terms, the same measure for `O=C1NC(=O)C(=Cc2cc(Sc3ccc(Cl)cc3)c(Sc3ccc(Cl)cc3)s2)S1` [Compound 61]: 0.33 µM; for `O=C1NC(=O)C(=Cc2ccc(Sc3ccc(Cl)cc3)s2)S1` [Compound 62]: 7.8 µM; for `O=C1NC(=O)C(=Cc2cc(Br)c(Sc3ccc(Cl)cc3)s2)S1` [Compound 63]: 6.5 µM.
As to `O=C1NC(=O)/C(=C/c2cc(Br)c([S+]([O-])c3ccc(Cl)cc3)s2)S1` (stereo not drawn) [Compound 64], the midpoint of inhibition, the IC50, lay at 9.7 µM. This IC50 and that of the compound before are within 1.5-fold of each other.
On the same count and under the same terms, the same measure for `O=C1NC(=O)C(=Cc2cc(C(=O)c3ccc(Cl)cc3)c(Sc3ccc(Cl)cc3)s2)S1` [Compound 65]: 6.2 µM; for `O=C1NC(=O)C(=Cc2cc([N+](=O)[O-])ccc2Sc2ccc(Cl)cc2)S1` [Compound 67]: 1 µM; for `O=C1NC(=O)C(=Cc2cc([N+](=O)[O-])ccc2Sc2cccc(Cl)c2)S1` [Compound 70]: 4.8 µM.
The compound `O=C1NC(=O)C(=Cc2cc([N+](=O)[O-])ccc2Sc2ccccc2Cl)S1` [Compound 71] showed a half-inhibitory concentration (IC50) of 2.7 µM. This IC50 lies about 1.8-fold lower than the previous one.
As for `O=C1NC(=O)C(=Cc2cc([N+](=O)[O-])ccc2Sc2ccc(Cl)c(Cl)c2)S1` [Compound 72], the half-inhibitory concentration (IC50) was 4.3 µM.
The compound `O=C1NC(=O)C(=Cc2cc([N+](=O)[O-])ccc2Sc2ccc(Br)cc2)S1` [Compound 73] gave an IC50 of 7 µM.
With `COc1ccc(Sc2ccc([N+](=O)[O-])cc2C=C2SC(=O)NC2=O)cc1` [Compound 74], it took 3.7 µM to reach half-maximal inhibition (IC50).
The same measure, in the same setting: the same measure for `O=C1NC(=O)C(=Cc2cc([N+](=O)[O-])ccc2SCc2ccccc2)S1` [Compound 76]: 3.9 µM; for `O=C1NC(=O)C(=Cc2cc([N+](=O)[O-])ccc2SCc2ccc(Cl)cc2)S1` [Compound 79]: 3.5 µM.
Still for that read-out and setting: the value for `O=C1NC(=O)C(=Cc2ccc(Sc3ccc(Br)cc3)c([N+](=O)[O-])c2)S1` [Compound 80] was 5.5 µM; that for `O=C1NC(=O)C(=Cc2cc([N+](=O)[O-])ccc2SC2CCCCC2)S1` [Compound 84] was 3.9 µM.
As to `Cc1ccc(Sc2ccc(Br)cc2C=C2SC(=O)NC2=O)cc1` [Compound 87], inhibition was half-maximal at 6.9 µM (IC50).
On the same count and under the same terms, the same measure for `Cc1ccc(Sc2ccc(-c3ccco3)cc2C=C2SC(=O)NC2=O)cc1` [Compound 90]: 3.7 µM; for `Cc1ccc(Sc2ccc(C#N)cc2C=C2SC(=O)NC2=O)cc1` [Compound 94]: 7.8 µM; for `Cc1ccc(Sc2cccc(C(F)(F)F)c2C=C2SC(=O)NC2=O)cc1` [Compound 99]: 6.9 µM.
With `Cc1ccc(Sc2ccc(C(F)(F)F)cc2C=C2SC(=O)NC2=O)cc1` [Compound 100], the IC50 came to 4.4 µM.
In turn, `Cc1ccc(Sc2ccc(Cl)cc2C=C2SC(=O)NC2=O)cc1` [Compound 106] returned an IC50 of 4.5 µM.
For the compound `O=C1NC(=O)C(=Cc2cc([N+](=O)[O-])ccc2Sc2ccc(C(F)(F)F)cc2)S1` [Compound 115], the IC50 came to 2.7 µM. This IC50 lies about 1.7-fold lower than the previous one.
Take `O=C1NC(=O)C(=Cc2ccc(N(Cc3ccccc3)c3ccccc3)cc2)S1` [Compound 121]: 4 µM corresponded to half-maximal inhibition (IC50).
Compound `O=C1NC(=O)C(=Cc2cc([N+](=O)[O-])ccc2SCCO)S1` [Compound 122] had a concentration for half-maximal inhibition (IC50) of 7.7 µM.
The same measure, in the same setting: the same measure for `CCCN(CCC)c1ccc([N+](=O)[O-])cc1C=C1SC(=O)NC1=O` [Compound 123]: 6.9 µM; for `O=C1NC(=O)C(=Cc2cc([N+](=O)[O-])ccc2N2CCOCC2)S1` [Compound 125]: 1.6 µM; for `COc1cc(O)ccc1C=C1SC(=O)NC1=O` [Compound 126]: 1.3 µM.
On the same count and under the same terms, the value for `O=C1NC(=O)C(=Cc2ccccc2OC(F)(F)F)S1` [Compound 127] was 5.7 µM; that for `O=C1NC(=O)/C(=C/c2c3ccccc3c(Sc3ccc(Cl)cc3)c3ccccc23)S1` [Compound 128] was 2.6 µM; that for `O=C1NC(=O)C(=Cc2cc([N+](=O)[O-])ccc2Sc2ccc(C(=O)O)cc2)S1` [Compound 129] was 8.1 µM.
The same measure, in the same setting: the same measure for `CSc1ccc(Sc2ccc([N+](=O)[O-])cc2C=C2SC(=O)NC2=O)cc1` [Compound 132]: 2.6 µM; for `Cc1ccc(Sc2ccc(C=C3SC(=O)NC3=O)cc2Oc2ccccc2)cc1` [Compound 137]: 5.5 µM.
Turning to `COc1cc(C=C2SC(=O)NC2=O)ccc1Sc1ccc(C)cc1` [Compound 138], the IC50 was determined as 4.3 µM.
Still for that read-out and setting: the value for `Cc1ccc(Sc2ccc(C(=O)OCc3ccccc3)cc2C=C2SC(=O)NC2=O)cc1` [Compound 139] was 4.4 µM.
The same measure, in the same setting: the value for `O=C1NC(=O)C(=Cc2cc([N+](=O)[O-])ccc2Sc2ccc3ccccc3c2)S1` [Compound 171] was 7.2 µM.
Same read-out and setting: the value for `CCc1ccc(CCOc2ccc(CC3SC(=O)NC3=O)cc2)nc1` (stereo not drawn) [Pioglitazone, pioglitazone, reference compound] was 83 µM; that for `Cc1c(C)c2c(c(C)c1O)CCC(C)(COc1ccc(CC3SC(=O)NC3=O)cc1)O2` (stereo not drawn) [Troglitazone, troglitazone, reference compound] was 16 µM.
